These are literature values, as cited in article PMC11921695 (BMC Cancer, 2025).

Molecules are shown by their SMILES.

The subject of data set [1] is embryofoetal development and survival. Details: method as in SCART protocol 7.3.1. The settings on record: at dose levels that do not induce maternal toxicity in mice; ref SCART protocol 7.3.1; cited from earlier work.
Data set [2] deals with patients with advanced cancer. Details: method as in Banerji, et al. Conditions: ref Banerji, et al., cited from earlier work.
Another data set has as its system p38 and JNK. Also on record: method as in Banerji, et al. The settings on record: protocol background; ref Banerji, et al.; cited from earlier work.

In the case of `Cn1cnc2c(F)c(Nc3ccc(Br)cc3Cl)c(C(=O)NOCCO)cc21` [selumetinib, 6-(4-Bromo-2-chloro-phenylamino)-7-fluro-3-methyl-3 H-benzoimidazole-5-carboxylic acid (2-hydroxy-ethoxy)-amide hydrogen sulphate], the reproductive toxicology finding entry in data set [1] is reported as “adverse effects on embryofoetal”. Further, in data set [2] (selumetinib monotherapy), the “dose identified as both safe and tolerable” value is recorded as 75 mg bd. Further, the “mean decrease in left ventricular ejection fraction (LVEF)” value in data set [2] (week 8, range -25% to +10%) is on record as -7.2%. The “activity against other kinases including p38 and JNK” value in the data set on p38 and JNK was “inactive, or minimally active”.
